Where “and” joins values, the source holds several entries; their conditions need not be identical. Identical values can stand only once. Like-named read-outs stand apart in the source and are kept apart here.

Data set [1] in a line: Liver S9 metabolic stability assay, human. Format: in vitro ADME. As to conditions: 3 μM, 60 min. In outline:
(§1)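 Rat and human liver S9 (0.75 and 1.2 mg/ml) with 1 mM NADPH, 0.5 mM UDPGA, 2.5 mM GSH, 0.05 mg/ml PAPS, 3µM substrate, 60 min at 37 °C in Tris/MgCl2 pH 7.4. Mouse microsomes 0.3 mg/mL, 1 mM NADPH, 3µM, 30 min, phosphate pH 7.4. LC-MS/MS, % remaining, triplicate.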

Data set [2] can be described thus: Liver S9 metabolic stability assay, rat. The following applies: 3 μM, 60 min. Format: in vitro ADME. Summed up: as §1
Data set [3] has as its target T1, hERG potassium channels (KCNH2, expressed in HEK293 cells) (Homo sapiens, UniProt Q12809).
T1 construct: expressed in transfected cells
Kind of data set: hERG inhibition. Format: cell-based.

Data set [4] in a line: LogD measurement (octanol-water). Format: physicochemical. In outline:
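Human and rat liver microsomes (0.3 mg/mL) with 1 mM NADPH and 3µM substrate, 30 minutes at 37 °C in pH 7.4 phosphate/MgCl2, triplicate; LC-MS/MS percentage remaining. LogD: octanol/aqueous buffer (pH 7.4, 2.2, 6.8, 5), 24 h shaking at room temperature. Kinetic solubility: 200 µM, 2% DMSO, 24 h, filtered.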

Another data set in a line: Mouse pharmacokinetics. Format: in vivo. As to conditions: male CD-1 mouse, PO 30 mg/kg suspension. The source says:
All animal experiments were approved by the Institutional Animal Care and Use Committee (IACUC) of Bristol Myers Squibb.

[5] abbreviates: supplement, read-out: measured logD.

T1 sequence (Q12809 whole entry): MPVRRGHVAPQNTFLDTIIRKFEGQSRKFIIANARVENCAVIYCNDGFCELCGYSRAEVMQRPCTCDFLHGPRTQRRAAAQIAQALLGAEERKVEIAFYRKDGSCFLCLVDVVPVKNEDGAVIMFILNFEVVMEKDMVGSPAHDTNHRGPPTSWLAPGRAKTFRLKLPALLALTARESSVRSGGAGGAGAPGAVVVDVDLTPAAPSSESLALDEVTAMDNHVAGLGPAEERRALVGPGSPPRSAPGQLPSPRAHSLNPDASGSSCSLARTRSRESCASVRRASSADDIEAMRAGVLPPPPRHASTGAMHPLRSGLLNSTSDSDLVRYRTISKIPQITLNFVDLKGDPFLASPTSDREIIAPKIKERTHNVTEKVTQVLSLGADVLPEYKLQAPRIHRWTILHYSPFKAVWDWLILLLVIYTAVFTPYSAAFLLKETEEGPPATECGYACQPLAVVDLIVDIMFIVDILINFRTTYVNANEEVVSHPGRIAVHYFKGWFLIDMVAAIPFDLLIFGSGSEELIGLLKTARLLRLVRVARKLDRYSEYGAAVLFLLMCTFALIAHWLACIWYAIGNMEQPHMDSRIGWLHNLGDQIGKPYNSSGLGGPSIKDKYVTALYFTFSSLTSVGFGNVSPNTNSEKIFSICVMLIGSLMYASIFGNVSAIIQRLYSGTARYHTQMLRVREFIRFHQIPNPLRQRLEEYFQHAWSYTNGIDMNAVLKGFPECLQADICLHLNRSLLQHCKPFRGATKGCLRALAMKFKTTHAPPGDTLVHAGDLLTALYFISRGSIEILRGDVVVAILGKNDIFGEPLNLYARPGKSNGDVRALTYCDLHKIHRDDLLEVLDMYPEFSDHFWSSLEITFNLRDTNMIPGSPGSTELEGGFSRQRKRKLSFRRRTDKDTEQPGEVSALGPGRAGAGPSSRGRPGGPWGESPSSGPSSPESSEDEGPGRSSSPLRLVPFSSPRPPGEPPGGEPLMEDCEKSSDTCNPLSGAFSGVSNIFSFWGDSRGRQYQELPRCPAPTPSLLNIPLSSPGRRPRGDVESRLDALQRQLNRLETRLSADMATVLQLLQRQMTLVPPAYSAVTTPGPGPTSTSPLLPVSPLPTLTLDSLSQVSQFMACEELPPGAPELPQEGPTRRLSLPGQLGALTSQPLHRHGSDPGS

Regarding `Cc1cccnc1Nc1nc(-c2ccc(OC3CC4(C3)CN(C3CC3)C4)cn2)ns1` [Compound 12, 3-[5-[(2-Cyclopropyl-2-azaspiro[3.3]heptan-6-yl)oxy]-2-pyridyl]-N-(3-methyl-2-pyridyl)-1,2,4-thiadiazol-5-mine], the “Human S9 metabolic stability” value in data set [1] is recorded as 58 % remaining. For the same compound, the “Rat S9 metabolic stability” value in data set [2] is 53 % remaining. Besides, the IC50 was determined as 0.203 µM in data set [3] and 0.2 µM in data set [3] (supplement). The logD at 24 h in data set [4] (pH 7.4, read-out: logD) amounted to 2.1; in data set [4] (setting [5]), 2.1.

Turning to `Cc1cccnc1Nc1nc(-c2ccc(OC3CCN(C4CC4)CC3)cn2)ns1` [Compound 19, 3-[5-[(1-Cyclopropyl-4-piperidyl)oxy]-2-pyridyl]-N-(3-methyl-2-pyridyl)-1,2,4-thiadiazol-5-amine], the “Human S9 metabolic stability” value in data set [1] amounted to 83 % remaining. Also, in data set [2], the “Rat S9 metabolic stability” value worked out at 76 % remaining. In data set [3], this compound showed an IC50 of 3.46 µM. The logD at 24 h in data set [4] (pH 7.4, read-out: logD) came out at 3.3. Also, the logD at 24 h in data set [4] (setting [5]) stood at 3.3. In addition, in the data set “Mouse pharmacokinetics”, the “AUC(0-inf)” value worked out at 6.23 ± 6.16 µM·h, the Cmax was 2080 ± 1220 nM and the Tmax is recorded as 0.5 ± 0.0 h.

With `CC(C)Oc1ccc(-c2nsc(Nc3ncccc3C(C)C)n2)nc1` [Compound 25, 3-(5-Isopropoxy-2-pyridyl)-N-(3-isopropyl-2-pyridyl)-1,2,4-thiadiazol-5-amine], the “Human S9 metabolic stability” value in data set [1] stood at 99 % remaining. In data set [2], the “Rat S9 metabolic stability” value is on record as 82 % remaining. Besides, the pH-dependent lipophilicity (logD) at 24 h in data set [4] (pH 7.4, read-out: logD) was 2.85. Also, in data set [4] (setting [5]), the logD at 24 h was 2.85. Also, in the data set “Mouse pharmacokinetics”, the “AUC(0-inf)” value was found to be 20.0 ± 9.9 µM·h, the Cmax worked out at 2050 ± 270 nM and the Tmax was 2.4 ± 3.8 h.

Regarding `Cc1ccnc(-c2nsc(Nc3ncccc3C(F)(F)F)n2)c1` [Compound 26, 3-(4-Methylpyridin-2-yl)-N-(3-(trifluoromethyl)pyridin-2-yl)-1,2,4-thiadiazol-5-amine], the “Human S9 metabolic stability” value in data set [1] worked out at 56 % remaining. The “Rat S9 metabolic stability” value in data set [2] is recorded as 61 % remaining. Moreover, in data set [3] (supplement), the 50% inhibitory concentration (IC50) is above 30 µM. In addition, the logD at 24 h in data set [4] (pH 7.4, read-out: logD) is 2.45; in data set [4] (setting [5]), 2.45.

For `CNc1cccnc1Nc1nc(-c2ccc(OC(C)C)cn2)ns1` [Compound 30], the “Human S9 metabolic stability” value in data set [1] is recorded as 86 % remaining. Besides, in data set [2], the “Rat S9 metabolic stability” value amounted to 73 % remaining. The compound further displayed an IC50 in data set [3] (supplement) of 16 µM. Moreover, the logD at 24 h in data set [4] (pH 7.4, read-out: logD) stood at 2.9; in data set [4] (setting [5]) it was 2.9.

As to `CC(C)c1ccnc(-c2nsc(Nc3cc(C(F)(F)F)ccn3)n2)c1` [Compound 35, 3-(4-Isopropylpyridin-2-yl)-N-(4-(trifluoromethyl)pyridin-2-yl)-1,2,4-thiadiazol-5-amine], the “Human S9 metabolic stability” value in data set [1] worked out at 65 % remaining. For the same compound, the “Rat S9 metabolic stability” value in data set [2] is on record as 45 % remaining. Also, the logD at 24 h in data set [4] (pH 7.4, read-out: logD) was found to be 3. For the same compound, the logD at 24 h in data set [4] (setting [5]) stood at 3. For the same compound, in the data set “Mouse pharmacokinetics”, the peak level (Cmax) was 210 ± 20 nM and the time to peak (Tmax) is 1.8 ± 1.7 h. In addition, the “AUC(0-inf)” value in the data set “Mouse pharmacokinetics” (30 mg/kg) was 1.7 µM·h and 1.73 ± 0.59 µM·h.

For the origin of these results see PMC9421654, “Discovery of Substituted Di(pyridin-2-yl)-1,2,4-thiadiazol-5-amines as Novel Macrofilaricidal Compounds for the Treatment of Human Filarial Infections” (Journal of Medicinal Chemistry, 2022).
